Reference: patent US20090105149A1, “Compounds comprising lpa” (ENKAM PHARMACEUTICALS A/S, priority 2003, published 2009)
Marks after values point to notes of the source that are not given here.

Key:
dopaminergic neurons = assay: Neurite outgrowth, dopaminergic neurons; format: cell-based, rat; conditions: 72 h; for Effect on Neurite Length (Percent Increase vs. Control): DN E14
Description: (§1) The cultures were subsequently immunostained for tyrosine hydroxylase. Hippocampal neurons and CGN were plated at a density of 10,000 cells/cm^2 on 8-well permanox chamber slides and incubated for 24 hours in the presence of various concentrations of FGLd. Subsequently the neurons were immunostained for GAP-43. Results from at least five independent experiments for each neuronal culture are shown as percentage ±SEM with the untreated controls set at 100%. *p<0.05, **p<0.01, ***p<0.001 when compared to the controls.
After 72 hours of incubation, the neurons were fixed with 4% (v/v) formaldehyde and immunostained using a primary mouse monoclonal antibody against tyrosine hydroxylase and secondary biotinylated sheep anti-mouse antibodies followed by incubation with peroxidase conjugated streptavidin. 98 images for each experimental condition in each individual experiment were automatically recorded using a computerised microscope workstation described by Walmod et al. (2002) Toxicol Appl Pharmacol. 181:1-15. Briefly, the workstation consisted of an Eclipse TE 300 inverted microscope (Nikon, Tokyo, Japan) equipped with a motorised, movable microscope stage (LUDL Electronic Production Ltd, Hawthorne, N.Y., USA), a 10× objective and a 1100 analogue b/w CCD video camera (DFA, Denmark). A software package Prima developed at the Protein Laboratory (Copenhagen University, Denmark) was used to make a stereologically based determination of neurite length according to Rønn et al., (2000) J Neurosci Methods. 100:25-32).

[1] = tested on: cerebellar granule neurons (CGN); assay: Neurite outgrowth, cerebellar granule neurons; format: cell-based, rat; conditions: 24 h
Description: as §1
Peptide solutions without or with inhibitors of various signal transduction pathways were added to a total volume of 300 μl/cm^2, and the slides were incubated at 37° C. After 24 hours, the neurons were fixed with 4% (v/v) formaldehyde for 20 minutes and thereafter immunostained using primary rabbit antibodies against GAP-43 and Alexa Fluor secondary goat anti-rabbit antibodies. Images of at least 200 neurons for each group in each individual experiment were obtained systematically by using computer assisted fluorescence microscopy as previously described (Rønn et al., 2000 op. cit.). Briefly, a Nikon Diaphot inverted microscope with a Nikon Plan 20× objective (Nikon, Tokyo, Japan) coupled to a video camera (Grundig Electronics, Germany) was used for recordings. The same software package as described above for the dopaminergic neurite outgrowth assay was used to process the recorded images.

[2] = tested on: dissociated hippocampal neurons; assay: OGD, metabolic activity (MTS) in dissociated hippocampal cell cultures; format: cell-based, rat
Source text: (§2) In the present study it was investigated the effect of the FGL peptide on synaptic plasticity, neuronal function and vulnerability following oxygen and glucose deprivation (OGD) in organotypic hippocampal neuronal slice cultures (OHSC) from 7-day-old Wistar rats according to method of Stoppini et al. (1991) Neurosci Methods. 37:173-82 and primary cultures of dissociated hippocampal neurons from 1-day-old rats according to method of Maar et al. (1997) J Neurosci Res. 47:163-72. Primary cell cultures were maintained for 11-12 days and OHSC for 12-14 days prior to adding FGLd.
(§3) The primary cell cultures and OHSC were exposed to OGD for 10 and 20 minutes. Following OGD, the cultures were again supplied with oxygen and glucose and analysed at 1, 4 or 24 hour time point after introduction of OGD exposure. FGLd (or the control peptide FGLc) was added 24 hr before, immediately, or 1 hr or 24 hr after OGD. When administered prior to OGD, FGLd was removed from the medium when introducing OGD. In some cases, the slice cultures were treated with FGLd only at 4 hr after OGD. In addition, the FGFR inhibitor, SU5402 (25 μM), was added together with FGLd in some of the set-ups.
(§4) In hippocampal neuronal cultures, FM 1-43 staining was used to evaluate pre-synaptic function (described above). Cell viability in both primary cell cultures and OHSC was measured using the […] [3-(4,5-dimethylthiazol-2-yl)-2,5-diphenyltetrazolium bromide] assay according to Malich et al, (1997) Toxicology. 124:179-92. In, addition, cell viability in OHSC was measured using propidium iodide (PI) staining according to Laake et al. (1999) Brain Res Brain Res Protoc. 4:173-84.

[3] = tested on: dissociated hippocampal neurons; assay: OGD, FM 1-43 release in dissociated hippocampal cell cultures; format: cell-based, rat
Source text: as §2, §3, §4

[4] = tested on: organotypic hippocampal neuronal slice cultures (OHSC); assay: OGD, propidium iodide staining of OHSC; format: cell-based, rat
Source text: as §2, §3, §4

rat pups = assay: Surface Righting Reflex in rat pups; format: in vivo; conditions: intranasal 2.6 μg per pup at PND 1, 2, 3
Description: The number of litters of each treatment group was six. […] FGLcontrol as above.
Dose-Response study. The effect of intranasal administration of 0.026, 0.26 and 2.6 μg FGLd per day at post-natal day (PND) 1, 2 and 3 on performance of the Surface Righting Reflex by rat pups was evaluated.
Sensory Motor Control Development study.

adult male Wistar rats = assay: Contextual Fear Conditioning test; format: in vivo, rat; conditions: 5 μg immediately after training
Source text: In the Contextual Fear Conditioning test, rats experienced inescapable shocks when exposed to a *new environment, which results in the development of a conditioned fear response, consisting of a characteristic immobility or ‘freezing response’, when subsequently re-exposed to the same environment.
The rats were handled for 120 seconds every day for 3 days preceding the first day of the experiment. On day 1 (training), the rats received a 1-second shock (unconditioned stimuli) each minute for two minutes. Animals were injected immediately after training with 5 μl FGLd (5 μg), the control peptide (5 μg) or the vehicle. Each treatment group consisted of 11-14 rats. In total, 39 animals were evaluated. Animals were tested on days 2, 7 and 30 by placing them in the chamber used for conditioning, but in the absence of a shock, for 8 minutes. Each rat was rated as either “freezing” or “active”, every 2 seconds, using a time-sampling procedure.

[5] = treated 24 hours before or immediately after OGD

Substance: FGLd: MAP-type dendrimer of FGL; dendrimeric tetramer of the FGL peptide (EVYVVAENQQGKSKA)
- Effect on Neurite Length (Percent Increase vs. Control) (dopaminergic neurons; 0.04 μg/mL): 12%
- Effect on Neurite Length (Percent Increase vs. Control) (dopaminergic neurons; 0.2 μg/mL): 23%
- Effect on Neurite Length (Percent Increase vs. Control) (dopaminergic neurons; 1 μg/mL): 24%
- Effect on Neurite Length (Percent Increase vs. Control) (dopaminergic neurons; 5 μg/mL): 13%
- maximal average neurite length, dopaminergic neurons (dopaminergic neurons; at 1 μg/ml, untreated control = 100%): 125%
- Effect on Neurite Length (Percent Increase vs. Control) ([1]; CGN PND 2-4, 9 μg/mL): 24%**
- Effect on Neurite Length (Percent Increase vs. Control) ([1]; CGN PND 5-8, 3 μg/mL): 30%
- Effect on Neurite Length (Percent Increase vs. Control) ([1]; CGN PND 5-8, 9 μg/mL): 93%
- Effect on Neurite Length (Percent Increase vs. Control) ([1]; CGN PND 5-8, 10 μg/mL): 37%
- Effect on Neurite Length (Percent Increase vs. Control) ([1]; CGN PND 5-8, 25 μg/mL): 79%
- Effect on Neurite Length (Percent Increase vs. Control) ([1]; CGN PND 5-8, 27 μg/mL): 121%
- Effect on Neurite Length (Percent Increase vs. Control) ([1]; CGN PND 5-8, 50 μg/mL): 179%
- Effect on Neurite Length (Percent Increase vs. Control) ([1]; CGN PND 5-8, 100 μg/mL): 96%
- maximal stimulation of neurite outgrowth, CGN ([1]; at 50 μg/ml, untreated control = 100%): 255%
- metabolic activity (MTS), treatment alone ([2]; no OGD): led to an increase in metabolic activity
- metabolic activity (MTS) after 20 min OGD [2, 5]: the effect of OGD on metabolic activity was diminished
- rate of FM 1-43 release after OGD [3, 5]: the OGD-induced decrease in the rate of FM 1-43 release was diminished
- rate of pre-synaptic vesicle release (FM 1-43 destaining) upon high potassium stimulation ([3]; treatment without OGD, control 0.04): 0.06 s⁻¹
- PI staining (cell damage) after 10 minutes of OGD ([4]; slices pre-treated for 24 hours): almost completely abolished
- PI staining (cell damage) after 10 minutes of OGD ([4]; treated immediately after OGD): Cell damage was also avoided
- PI staining (cell damage) after 10 minutes of OGD ([4]; treatment delayed until 4 hours after OGD): not if FGLd treatment was delayed until 4 hours after OGD
- Surface Righting Reflex test, significance vs control and FGLcontrol groups (rat pups; PND4, P<0.05): statistically significant effect
- Surface Righting Reflex performance (rat pups; PND 5, vehicle 3.4): 1.3 s
- percentage of freezing time (adult male Wistar rats; day 2 after conditioning, control 50.5%): 73.5%
- percentage of freezing time (adult male Wistar rats; day 7 after conditioning, control 30.0%): 60.3%
